Measurements from patent publication US20250066379A1, “ANTIMALARIAL AGENTS” (Merck Sharp & Dohme LLC, priority 2021, published 2025).

System: parasite
Experiment: Parasite LDH growth assay (Parasite Assay)
Assay type: cell-based, Plasmodium falciparum
Details: Plasmodium falciparum, 72 h, ring stage parasites, 72 hours growth at 37° C., LDH readout of parasite growth
Procedure: Assessing Antiparasite Potency in a Parasite LDH Growth Assay (Parasite Assay) The parasite stock was maintained at 4% haematocrit in RPMI-Hepes media 30 buffered with sodium bicarbonate and supplemented with 5% heat inactivated human serum and 0.5% albumax. Approximately 42 hours prior to the potency assay being set up, parasites were synchronized with 5% sorbitol to select for ring stage parasites. On the day of assay set up, a blood smear of the parasite culture was Giemsa stained and counted. The parasitemia was 35 adjusted to 0.7% rings and the haematocrit was diluted to 2% in RPMI-Hepes media buffered with sodium bicarbonate and supplemented with 5% heat inactivated human serum and 0.5% albumax. 30 ul of diluted parasites are then added into 10 μl of media+compound in pre-prepared Greiner TC assay plates. Parasite assay plates were placed in gassed humidified boxes in single layer and allowed to incubate at 37° C. for 72 hours. After 72 hours growth, assay plates are sealed with parafilm and frozen flat, in single file at −80° C. overnight. On the following day, assay plates were allowed to thaw at room temperature for 4 hours to which an LDH assay was performed to measure parasite growth.

| Structure (SMILES) | EC50 [nM] |
| --- | --- |
| CC[C@]12CCC/C=C\c3ccc4c(c3)[C@@H](NC(=O)c3ccc5c(c3)[C@@H](CCO5)N(C(=N)N1)C(=O)C2)[C@H](O)C4 [Example 6, (1R,5R,9Z,16R, 17R)-5-ethyl-16-hydroxy-3-imino-24-oxa-2,4,18-triazahexacyclo[18. 6.2.22,5.211,14.013, 17.023,27] dotriaconta-9,11,13,20,22,27, 29-heptaene-19,32-dione] | 2.8 |
| CC[C@]12CCC/C=C/c3ccc4c(c3)[C@H](CC(C)(C)O4)NC(=O)c3ccc4c(c3)[C@@H](CCO4)N(C(=N)N1)C(=O)C2 [Example 7, (1R,5R,9E,18S)-5-ethyl-3-imino-16,16-dimethyl-15,25-dioxa-2,4,19-triazahexacyclo[19. 6.2.22,5.211,14.013, 18.024,28] tritriaconta-9,11,13,21,23,28, 30-heptaene-20,33-dione] | 0.9 |
| CC[C@]12CCCCCc3ccc4c(c3)[C@H](CC(C)(C)O4)NC(=O)c3ccc4c(c3)[C@@H](CCO4)N(C(=N)N1)C(=O)C2 [Example 8, (1R,5R,18S)-5-ethyl-3-imino-16,16-dimethyl-15,25-dioxa-2,4,19-triazahexacyclo[19. 6.2.22,5.211,14.013, 18.024,28] tritriaconta-11,13,21,23,28,30-hexaene-20,33-dione] | 1.1 |
| CC[C@@]12CCCCCc3ccc4c(c3)[C@H](CC(C)(C)O4)NC(=O)c3ccc4c(c3)[C@@H](CCO4)N(C(=N)N1)C(=O)C2 [Example 9, (1R,5S,18S)-5-ethyl-3-imino-16,16-dimethyl-15,25-dioxa-2,4,19-triazahexacyclo[19. 6.2.22,5.211,14.013, 18.024,28] tritriaconta-11,13,21,23,28,30-hexaene-20,33-dione] | 76.5 |
| CC[C@]12CCC/C=C\Cc3ccc4c(c3)[C@H](CC(C)(C)O4)NC(=O)c3ccc4c(c3)[C@@H](CCO4)N(C(=N)N1)C(=O)C2 [Example 10, (1R,5R,9Z,19S)-5-ethyl-3-imino-17,17-dimethyl-16,26-dioxa-2,4,20-triazahexacyclo[20. 6.2.22,5.212,15.014, 19.025,29] tetratriaconta-9,12,14,22(30),23, 25(29),31-heptaene-21,34-dione] | 2.5 |
| CC[C@]12CCC/C=C/Cc3ccc4c(c3)OC(C)(C)C[C@@H]4NC(=O)c3ccc4c(c3)[C@@H](CCO4)N(C(=N)N1)C(=O)C2 [Example 11, (1R,5R,9E,20S)-5-ethyl-3-imino-18,18-dimethyl-17,27-dioxa-2,4,21-triazahexacyclo[21. 6.2.22,5.112,16.015, 20.026,30] tetratriaconta-9,12(32),13,15,23, 25,30-heptaene-22,34-dione] | 4.6 |
| CC[C@]12CCCCCCc3ccc4c(c3)[C@H](CC(C)(C)O4)NC(=O)c3ccc4c(c3)[C@@H](CCO4)N(C(=N)N1)C(=O)C2 [Example 12, (1R,5R,19S)-5-ethyl-3-imino-17,17-dimethyl-16,26-dioxa-2,4,20-triazahexacyclo[20. 6.2.22,5.212,15.014, 19.025,29] tetratriaconta-12,14,22(30),23, 25(29),31-hexaene-21,34-dione] | 1 |
| CC[C@@]12CCCCCCc3ccc4c(c3)OC(C)(C)C[C@@H]4NC(=O)c3ccc4c(c3)[C@@H](CCO4)N(C(=N)N1)C(=O)C2 [Example 13, (1R,5S,20S)-5-ethyl-3-imino-18,18-dimethyl-17,27-dioxa-2,4,21-triazahexacyclo[21. 6.2.22,5.112,16.015, 20.026,30] tetratriaconta-12(32),13,15,23,25, 30-hexaene-22,34-dione] | 22 |
| CC[C@]12CCCCCCc3ccc4c(c3)OC(C)(C)C[C@@H]4NC(=O)c3ccc4c(c3)[C@@H](CCO4)N(C(=N)N1)C(=O)C2 [Example 14, (1R,5R,20S)-5-ethyl-3-imino-18,18-dimethyl-17,27-dioxa-2,4,21-triazahexacyclo[21. 6.2.22,5.112,16.015, 20.026,30] tetratriaconta-12(32),13,15,23, 25,30-hexaene-22,34-dione] | 34 |
| CCC12CCCCCc3ccc4c(c3)[C@H](CC(C)(C)O4)NC(=O)c3ccc4c(c3)[C@@H]([C@H](COC)CO4)N(C(=N)N1)C(=O)C2 (stereo partly drawn) [Example 16A, (1R,18S,27R)-5-ethyl-3-imino-27-(methoxymethyl)-16,16-dimethyl-15,25-dioxa-2,4,19-triazahexacyclo[19. 6.2.22,5.211,14.013, 18.024,28] tritriaconta-11,13,21,23,28,30-hexaene-20,33-dione] | 61.5 |
